Data reported in PubChem BioAssay AID1963844 (Molecular Pharmacology Branch, DTP, NCI, 2024).

Test system: 422866-222-R5-J1-PDC complex spheroid viability
Test: Anticancer human tumor 422866-222-R5-J1-PDC patient-derived pancreatic adenocarcinoma cell line growth inhibition [POLQ]
Conditions: for IC50: curve of first compound; for viability, T/C: stronger effect = lower value
Method in brief: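 Complex spheroid viability model combining PDC tumour cells with endothelial (HUVEC) and MSC stromal cells. Novobiocin, ART-558 or RP6685 were tested singly and in combination with standard and investigational anticancer drugs. Each was titrated in half-log steps from near clinical Cmax, or from 10 microM where Cmax was unknown.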

[1] = second compound 0.0316 µM, first compound 0.0316 µM
[2] = second compound 0.0316 µM, first compound 0.1 µM
[3] = second compound 0.0316 µM, first compound 0.316 µM
[4] = second compound 0.0316 µM, first compound 1 µM
[5] = second compound 0.0316 µM, first compound 3.16 µM
[6] = second compound 0.0316 µM, first compound 10 µM
[7] = second compound 0.1 µM, first compound 0.0316 µM
[8] = second compound 0.1 µM, first compound 0.1 µM
[9] = second compound 0.1 µM, first compound 0.316 µM
[10] = second compound 0.1 µM, first compound 1 µM
[11] = second compound 0.1 µM, first compound 3.16 µM
[12] = second compound 0.1 µM, first compound 10 µM
[13] = second compound 0.316 µM, first compound 0.0316 µM
[14] = second compound 0.316 µM, first compound 0.1 µM
[15] = second compound 0.316 µM, first compound 0.316 µM
[16] = second compound 0.316 µM, first compound 1 µM
[17] = second compound 0.316 µM, first compound 3.16 µM
[18] = second compound 0.316 µM, first compound 10 µM
[19] = second compound 1 µM, first compound 0.0316 µM
[20] = second compound 1 µM, first compound 0.1 µM
[21] = second compound 1 µM, first compound 0.316 µM
[22] = second compound 1 µM, first compound 1 µM
[23] = second compound 1 µM, first compound 3.16 µM
[24] = second compound 1 µM, first compound 10 µM
[25] = second compound 3.16 µM, first compound 0.0316 µM
[26] = second compound 3.16 µM, first compound 0.1 µM
[27] = second compound 3.16 µM, first compound 0.316 µM
[28] = second compound 3.16 µM, first compound 1 µM
[29] = second compound 3.16 µM, first compound 3.16 µM
[30] = second compound 3.16 µM, first compound 10 µM
[31] = second compound 10 µM, first compound 0.0316 µM
[32] = second compound 10 µM, first compound 0.1 µM
[33] = second compound 10 µM, first compound 0.316 µM
[34] = second compound 10 µM, first compound 1 µM
[35] = second compound 10 µM, first compound 3.16 µM
[36] = second compound 10 µM, first compound 10 µM
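Also: spheroids exposed to compounds for one week before readout.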
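For viability, T/C in this document: percent of DMSO vehicle wells luminescence so 100% = untreated viability.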

COc1cc(C2c3cc4c(cc3C(OC3OC5COC(C)OC5C(O)C3O)C3COC(=O)C23)OCO4)cc(OC)c1O (stereo unspecified) + COC1C(OC(N)=O)C(O)C(Oc2ccc3c(O)c(NC(=O)c4ccc(O)c(CC=C(C)C)c4)c(=O)oc3c2C)OC1(C)C was tested, and the IC50 (second compound 0.0316 µM) was 1330 nM, the IC50 (second compound 0.1 µM) was 966 nM and the IC50 (second compound 0.316 µM) was 770 nM. For the same compound, the IC50 (second compound 1 µM) was 1070 nM, the IC50 (second compound 3.16 µM) was 854 nM and the IC50 (second compound 10 µM) was 715 nM. For the same compound, the viability, T/C [1] was 97.7%, the viability, T/C [2] was 95% and the viability, T/C [3] was 72.5%. For the same compound, the viability, T/C [4] was 51.3%, the viability, T/C [5] was 45.4% and the viability, T/C [6] was 31.5%. For the same compound, the viability, T/C [7] was 103%, the viability, T/C [8] was 94.7% and the viability, T/C [9] was 73.5%. The viability, T/C [10] was 49.3%, the viability, T/C [11] was 38.2% and the viability, T/C [12] was 36.4%. The viability, T/C [13] was 101%, the viability, T/C [14] was 98.6% and the viability, T/C [15] was 61.8%. The viability, T/C [16] was 51.4%, the viability, T/C [17] was 35.7% and the viability, T/C [18] was 34.9%. For the same compound, the viability, T/C [19] was 109%, the viability, T/C [20] was 93.2% and the viability, T/C [21] was 85.5%. For the same compound, the viability, T/C [22] was 48.3%, the viability, T/C [23] was 38% and the viability, T/C [24] was 32.7%. For the same compound, the viability, T/C [25] was 87.2%, the viability, T/C [26] was 88.3% and the viability, T/C [27] was 82.4%. It also gave a viability, T/C [28] of 44.8%, a viability, T/C [29] of 39.4% and a viability, T/C [30] of 35.5%. For the same compound, the viability, T/C [31] was 96.1%, the viability, T/C [32] was 101% and the viability, T/C [33] was 64.4%. It also gave a viability, T/C [34] of 51%, a viability, T/C [35] of 41.3% and a viability, T/C [36] of 36.7%.

Compound COc1cccc2c1C(=O)c1c(O)c3c(c(O)c1C2=O)CC(O)(C(=O)CO)CC3OC1CC(N)C(O)C(C)O1 (stereo unspecified) + COC1C(OC(N)=O)C(O)C(Oc2ccc3c(O)c(NC(=O)c4ccc(O)c(CC=C(C)C)c4)c(=O)oc3c2C)OC1(C)C has an IC50 (second compound 0.0316 µM) of 242 nM, an IC50 (second compound 0.1 µM) of 225 nM and an IC50 (second compound 0.316 µM) of 236 nM. For the same compound, the IC50 (second compound 1 µM) was 250 nM, the IC50 (second compound 3.16 µM) was 217 nM and the IC50 (second compound 10 µM) was 224 nM. The viability, T/C [1] was 60.2%, the viability, T/C [2] was 110% and the viability, T/C [3] was 39.3%. The viability, T/C [4] was 29.7%, the viability, T/C [5] was 30% and the viability, T/C [6] was 35.5%. For the same compound, the viability, T/C [7] was 75.5%, the viability, T/C [8] was 94.4% and the viability, T/C [9] was 35.4%. It also gave a viability, T/C [10] of 25.3%, a viability, T/C [11] of 28.9% and a viability, T/C [12] of 33.3%. It also gave a viability, T/C [13] of 67.5%, a viability, T/C [14] of 102% and a viability, T/C [15] of 38.1%. It also gave a viability, T/C [16] of 26.9%, a viability, T/C [17] of 26.9% and a viability, T/C [18] of 30.9%. For the same compound, the viability, T/C [19] was 71.2%, the viability, T/C [20] was 104% and the viability, T/C [21] was 40.3%. It also gave a viability, T/C [22] of 21.8%, a viability, T/C [23] of 26.9% and a viability, T/C [24] of 29.5%. The viability, T/C [25] was 54.5%, the viability, T/C [26] was 107% and the viability, T/C [27] was 35%. It also gave a viability, T/C [28] of 23.9%, a viability, T/C [29] of 25.6% and a viability, T/C [30] of 38.9%. For the same compound, the viability, T/C [31] was 56.1%, the viability, T/C [32] was 106% and the viability, T/C [33] was 36.8%. For the same compound, the viability, T/C [34] was 26.7%, the viability, T/C [35] was 28.9% and the viability, T/C [36] was 29.8%.

COc1ccc([C@@H](O)c2cc(-c3ncnc4cc(N5CCOCC5)ccc34)c(F)cc2Cl)nn1 + Cc1cccc(N(C)C(=O)C2C(O)CCN2c2nc(C)cc(C(F)(F)F)c2C#N)c1 showed an IC50 (second compound 0.0316 µM) of 2600 nM, an IC50 (second compound 0.1 µM) of 4620 nM and an IC50 (second compound 0.316 µM) of 2420 nM. For the same compound, the IC50 (second compound 1 µM) was 1920 nM, the IC50 (second compound 3.16 µM) was 1650 nM and the IC50 (second compound 10 µM) was 2280 nM. It also gave a viability, T/C [1] of 91.6%, a viability, T/C [2] of 92.2% and a viability, T/C [3] of 77.4%. For the same compound, the viability, T/C [4] was 62.1%, the viability, T/C [5] was 49.1% and the viability, T/C [6] was 35.5%. For the same compound, the viability, T/C [7] was 92%, the viability, T/C [8] was 81.3% and the viability, T/C [9] was 83.2%. It also gave a viability, T/C [10] of 64.5%, a viability, T/C [11] of 54.5% and a viability, T/C [12] of 42.3%. It also gave a viability, T/C [13] of 108%, a viability, T/C [14] of 86.3% and a viability, T/C [15] of 70.9%. It also gave a viability, T/C [16] of 61.3%, a viability, T/C [17] of 43.9% and a viability, T/C [18] of 41.4%. The viability, T/C [19] was 89.9%, the viability, T/C [20] was 81.1% and the viability, T/C [21] was 85.9%. It also gave a viability, T/C [22] of 58.5%, a viability, T/C [23] of 44.6% and a viability, T/C [24] of 33.3%. For the same compound, the viability, T/C [25] was 79.8%, the viability, T/C [26] was 90.7% and the viability, T/C [27] was 80.3%. It also gave a viability, T/C [28] of 56.4%, a viability, T/C [29] of 43.1% and a viability, T/C [30] of 37.1%. The viability, T/C [31] was 93.3%, the viability, T/C [32] was 83.8% and the viability, T/C [33] was 73.5%. The viability, T/C [34] was 59%, the viability, T/C [35] was 46% and the viability, T/C [36] was 37.6%.
